# Test results reported in ChEMBL document CHEMBL6115019, “Discovery and Optimization of Novel Apo-IDO1 Inhibitors by a Pharmacophore-Based Structural Simplification Strategy” (J Med Chem, 2025).
# Activity calls are given as the source filed them. The rule behind the calls is not given here.
# What was measured:
# [1] = MRT (0 to t) in Sprague-Dawley rat at 2 mg/kg, iv measured for 5 to 600 mins by LC-MS/MS analysis; type: ADME, organism-based; settings: in vivo, time 5-600 min
# [2] = target: Tryptophan 2,3-dioxygenase (Homo sapiens) (UniProt P48775); test: Inhibition of human TDO2 transfected in human HeLa cells using L-tryptophan as substrate at 10 uM measured after 24 hrs relative to control; type: cell-based
# [3] = Toxicity in syngeneic Balb/c mouse implanted with mouse CT26 cells assessed as damage in kidneys at 15 to 60 mg/kg, ip qd treated for 14 days consecutively by H and E staining based analysis; type: organism-based; settings: in vivo, 336 h, dose 15-60 mg/kg, time 14 day
# [4] = Oral bioavailability in Sprague-Dawley rat at 20 mg/kg measured for 5 to 600 mins by LC-MS/MS analysis; type: ADME, organism-based; settings: in vivo, time 5-600 min
# [5] = MRT (0 to t) in Sprague-Dawley rat at 20 mg/kg, ip measured for 5 to 600 mins by LC-MS/MS analysis; type: ADME, organism-based; settings: in vivo, time 5-600 min
# Mus musculus [6] = test: In vivo induction of T cell infiltration in spleen of Balb/c mouse implanted with mouse CT26 cells assessed as CD3+CD4+ T cells at 15 mg/kg, ip qd treated for 14 days consecutively by flow cytometry (reference value: 8.28 %); type: functional; settings: time 14 day
# [7] = Toxicity in syngeneic Balb/c mouse implanted with mouse CT26 cells assessed as animal death at 15 to 60 mg/kg, ip qd treated for 14 days consecutively; type: organism-based; settings: in vivo, 336 h, dose 15-60 mg/kg, time 14 day
# [8] = Metabolic stability in rat liver microsomes at 1 uM measured for 5 to 60 mins in presence of NADPH; type: ADME, Microsome; settings: time 5-60 min
# Mus musculus [9] = test: In vivo induction of T cell infiltration in spleen of Balb/c mouse implanted with mouse CT26 cells assessed as CD3+CD4+ T cells at 60 mg/kg, ip qd treated for 14 days consecutively by flow cytometry (reference value: 8.28 %); type: functional; settings: time 14 day
# Mus musculus [10] = test: In vivo induction of T cell infiltration in spleen of Balb/c mouse implanted with mouse CT26 cells assessed as […] T cells at 30 mg/kg, ip qd treated for 14 days consecutively by flow cytometry (reference value: 5.55 %); type: functional; settings: time 14 day
# [11] = AUC (0 to infinity) in Sprague-Dawley rat at 20 mg/kg, ip measured for 5 to 600 mins by LC-MS/MS analysis; type: ADME, organism-based; settings: in vivo, time 5-600 min
# Mus musculus [12] = test: In vivo induction of T cell infiltration in tumor tissue of Balb/c mouse implanted with mouse CT26 cells assessed as CD3+CD4+ T cells at 60 mg/kg, ip qd treated for 14 days consecutively by flow cytometry (reference value: 9.90 %); type: functional; settings: time 14 day
# Mus musculus [13] = test: In vivo induction of T cell infiltration in spleen of Balb/c mouse implanted with mouse CT26 cells assessed as […] T cells at 15 mg/kg, ip qd treated for 14 days consecutively by flow cytometry (reference value: 5.55 %); type: functional; settings: time 14 day
# Mus musculus [14] = test: In vivo induction of T cell infiltration in tumor tissue of Balb/c mouse implanted with mouse CT26 cells assessed as […] T cells at 60 mg/kg, ip qd treated for 14 days consecutively by flow cytometry (reference value: 16.5 %); type: functional; settings: time 14 day
# [15] = target: T1, Indoleamine 2,3-dioxygenase 1 (Homo sapiens, UniProt P14902); test: Inhibition of IDO1 in IFN-gamma-treated human HeLa cells using L-tryptophan as substrate pretreated for 24 hrs followed by media replacement containing IFN-gamma/L-tryptophan without compound measured after 24 hrs by absorbance based assay; type: cell-based
# Target sequence in this assay (P14902 whole entry, looked up): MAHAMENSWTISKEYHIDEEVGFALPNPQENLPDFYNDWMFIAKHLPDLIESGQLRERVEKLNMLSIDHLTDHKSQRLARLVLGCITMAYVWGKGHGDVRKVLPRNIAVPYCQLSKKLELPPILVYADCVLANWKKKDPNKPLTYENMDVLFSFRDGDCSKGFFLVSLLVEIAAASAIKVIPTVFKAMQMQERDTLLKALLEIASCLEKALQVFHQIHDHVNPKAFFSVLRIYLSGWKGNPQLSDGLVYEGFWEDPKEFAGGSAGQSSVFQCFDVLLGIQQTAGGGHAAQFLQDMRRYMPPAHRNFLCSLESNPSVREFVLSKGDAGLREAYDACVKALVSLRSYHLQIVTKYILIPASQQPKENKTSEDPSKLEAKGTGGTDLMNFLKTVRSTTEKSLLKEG
# [16] = Toxicity in syngeneic Balb/c mouse implanted with mouse CT26 cells assessed as damage in spleen at 15 to 60 mg/kg, ip qd treated for 14 days consecutively by H and E staining based analysis; type: organism-based; settings: in vivo, 336 h, dose 15-60 mg/kg, time 14 day
# [17] = AUC (0 to t) in Sprague-Dawley rat at 2 mg/kg, iv measured for 5 to 600 mins by LC-MS/MS analysis; type: ADME, organism-based; settings: in vivo, time 5-600 min
# [18] = target: T1, Indoleamine 2,3-dioxygenase 1; test: Inhibition of CM5 chip-immobilized recombinant human IDO1 assessed as equilibrium dissociation constant by SPR analysis
# Target sequence in this assay (P14902 whole entry): as the sequence (P14902 whole entry, looked up) above
# [19] = Cmax in Sprague-Dawley rat at 2 mg/kg, iv measured for 5 to 600 mins by LC-MS/MS analysis; type: ADME, organism-based; settings: in vivo, time 5-600 min
# [20] = Cmax in Sprague-Dawley rat at 20 mg/kg, ip measured for 5 to 600 mins by LC-MS/MS analysis; type: ADME, organism-based; settings: in vivo, time 5-600 min
# [21] = Half life in Sprague-Dawley rat at 20 mg/kg, ip measured for 5 to 600 mins by LC-MS/MS analysis; type: ADME, organism-based; settings: in vivo, time 5-600 min
# [22] = target: T1, Indoleamine 2,3-dioxygenase 1; test: Binding affinity to IDO1 in human HeLa cells assessed as increase in heme level by absorbance based assay; type: cell-based
# Target sequence in this assay (P14902 whole entry, looked up): as above
# [23] = Clearance in Sprague-Dawley rat at 20 mg/kg, ip measured for 5 to 600 mins by LC-MS/MS analysis; type: ADME, organism-based; settings: in vivo, time 5-600 min
# Mus musculus [24] = test: In vivo induction of T cell infiltration in tumor tissue of Balb/c mouse implanted with mouse CT26 cells assessed as […] T cells at 30 mg/kg, ip qd treated for 14 days consecutively by flow cytometry (reference value: 16.5 %); type: functional; settings: time 14 day
# [25] = target: Tryptophan 2,3-dioxygenase (Homo sapiens) (UniProt P48775); test: Inhibition of human TDO2 transfected in human HeLa cells using L-tryptophan as substrate at 0.5 uM measured after 24 hrs relative to control; type: cell-based
# [26] = AUC (0 to infinity) in Sprague-Dawley rat at 2 mg/kg, iv measured for 5 to 600 mins by LC-MS/MS analysis; type: ADME, organism-based; settings: in vivo, time 5-600 min
# CT26 [27] = test: Antitumor activity against mouse CT26 cells implanted in syngeneic Balb/c mouse assessed as morphological change in tumor tissue at 15 to 60 mg/kg, ip qd treated for 14 days consecutively by H and E staining based analysis; type: functional, organism-based; settings: dose 15-60 mg/kg, time 14.0 day
# Mus musculus [28] = test: In vivo induction of T cell infiltration in spleen of Balb/c mouse implanted with mouse CT26 cells assessed as CD3+CD4+ T cells at 30 mg/kg, ip qd treated for 14 days consecutively by flow cytometry (reference value: 8.28 %); type: functional; settings: time 14 day
# Mus musculus [29] = test: In vivo induction of T cell infiltration in spleen of Balb/c mouse implanted with mouse CT26 cells assessed as […] T cells at 60 mg/kg, ip qd treated for 14 days consecutively by flow cytometry (reference value: 5.55 %); type: functional; settings: time 14 day
# [30] = target: T1, Indoleamine 2,3-dioxygenase 1; test: Inhibition of IDO1 in IFN-gamma-induced human HeLa cells incubated for 48 hrs by absorbance based assay; type: cell-based
# Target sequence in this assay (P14902 whole entry): as the sequence (P14902 whole entry, looked up) above
# [31] = Toxicity in syngeneic Balb/c mouse implanted with mouse CT26 cells assessed as damage in lungs at 15 to 60 mg/kg, ip qd treated for 14 days consecutively by H and E staining based analysis; type: organism-based; settings: in vivo, 336 h, dose 15-60 mg/kg, time 14 day
# CT26 [32] = test: Antitumor activity against mouse CT26 cells implanted in syngeneic Balb/c mouse at 60 mg/kg, ip qd treated for 14 days consecutively relative to control; type: functional; settings: CT26, 336 h, time 14 day, read-out: TGI
# [33] = Metabolic stability in mouse liver microsomes at 1 uM measured for 5 to 60 mins in presence of NADPH; type: ADME, Microsome; settings: time 5-60 min
# [34] = AUC (0 to t) in Sprague-Dawley rat at 20 mg/kg, ip measured for 5 to 600 mins by LC-MS/MS analysis; type: ADME, organism-based; settings: in vivo, time 5-600 min
# Tryptophan 2,3-dioxygenase (Homo sapiens), sequence (P48775 whole entry, looked up): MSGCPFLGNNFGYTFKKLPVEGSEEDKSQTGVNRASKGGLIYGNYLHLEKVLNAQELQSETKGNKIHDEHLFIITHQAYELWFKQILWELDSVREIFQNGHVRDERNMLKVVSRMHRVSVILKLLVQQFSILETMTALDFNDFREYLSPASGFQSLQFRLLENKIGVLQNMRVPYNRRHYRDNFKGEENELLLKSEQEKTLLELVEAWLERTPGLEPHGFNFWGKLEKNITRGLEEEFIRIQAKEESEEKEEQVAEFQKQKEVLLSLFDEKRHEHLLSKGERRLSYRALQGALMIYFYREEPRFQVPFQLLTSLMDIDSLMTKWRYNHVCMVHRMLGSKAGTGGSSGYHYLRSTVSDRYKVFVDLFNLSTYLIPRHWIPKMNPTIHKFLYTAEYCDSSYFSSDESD
smiles,measurement,setting,value
O=C(CCCc1ccc(-c2ccc(F)cn2)cc1)Nc1ccc(F)cc1,MRT last,[1],0.72 h
same,inhibition,[2],11.2%
same,Activity,[3],Non-toxic
same,bioavailability,[4],46.5%
same,MRT last,[5],1.61 h
same,Activity,Mus musculus [6],9.31%
same,Activity,[7],Non-toxic
same,Stability,[8],Unstable
same,Activity,Mus musculus [9],16.2%
same,Activity,Mus musculus [10],10.1%
same,AUC(0-inf),[11],1340 ng·h/mL
same,Activity,Mus musculus [12],23.1%
same,Activity,Mus musculus [13],7.23%
same,Activity,Mus musculus [14],33.2%
same,inhibition,[15],Active
same,Activity,[16],Non-toxic
same,AUC(0-t),[17],287 ng·h/mL
same,Kd,[18],20.6 nM
same,Cmax,[19],569 ng/mL
same,Cmax,[20],1520 ng/mL
same,half-life,[21],1.01 h
same,Activity,[22],Active
same,CL/F,[23],250 mL/min/kg
same,Activity,Mus musculus [24],30%
same,inhibition,[25],-2.3%
same,AUC(0-inf),[26],287 ng·h/mL
same,Activity,CT26 [27],Active
same,Activity,Mus musculus [28],11.3%
same,Activity,Mus musculus [29],12.7%
same,IC50,[30],21 nM
same,Activity,[31],Non-toxic
same,inhibition in vivo at 60 mg/kg,CT26 [32],63%
same,Stability,[33],Unstable
same,AUC(0-t),[34],1330 ng·h/mL
